Measurements as given in ChEMBL document CHEMBL1201862, “PubChem BioAssay data set” (2004).
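Compound exposure: 48 hours, 5 concentrations, 96-well plates. GI50 is the concentration that inhibits growth by half.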 The source made the active and inactive calls. No stated cut-off is given here; in the data, active = GI50 up to about 1.1 µM and inactive = higher.

Experiments:
Test in all cases: DTP human tumour cell line panel, 48 h
[1] = test system: HL-60
[2] = test system: A549
[3] = test system: OVCAR-8
[4] = test system: SF-295
[5] = test system: T47D
[6] = test system: UACC-62
[7] = test system: 786-0
[8] = test system: RPMI-8226
[9] = test system: LOX IMVI
[10] = test system: HT-29
[11] = test system: HOP-92
[12] = test system: SW-620
[13] = test system: MCF7
[14] = test system: MOLT-4
[15] = test system: MDA-MB-435
[16] = test system: CAKI-1
[17] = test system: UO-31
[18] = test system: IGROV-1
[19] = test system: SF-539
[20] = test system: SNB-19
[21] = test system: NCI-H522
[22] = test system: M14
[23] = test system: MDA-MB-231
[24] = test system: COLO 205
[25] = test system: NCI-H226
[26] = test system: HCC 2998
[27] = test system: HCT-15
[28] = test system: HOP-62
[29] = test system: SK-MEL-28
[30] = test system: EKVX
[31] = test system: CCRF-CEM
[32] = test system: OVCAR-3
[33] = test system: ACHN
[34] = test system: NCI/ADR-RES
[35] = test system: U-251
[36] = test system: UACC-257
[37] = test system: SK-MEL-2
[38] = test system: HCT-116
[39] = test system: Hs-578T
[40] = test system: TK-10
[41] = test system: PC-3
[42] = test system: SN12C
[43] = test system: NCI-H460
[44] = test system: OVCAR-4
[45] = test system: BT-549
[46] = test system: DU-145
[47] = test system: MDA-N
[48] = test system: K562
[49] = test system: NCI-H23
[50] = test system: KM12
[51] = test system: SK-MEL-5
[52] = test system: A498
[53] = test system: SF-268
[54] = test system: OVCAR-5
[55] = test system: SK-OV-3
[56] = test system: Malme-3M

## O=C(CC(=O)Nc1cccc(C(=O)O)c1)Nc1cccc(C(=O)O)c1
[1]
  GI50: > 100 µM (inactive)
[2]
  GI50: > 100 µM (inactive)
[3]
  GI50: > 100 µM (inactive)
[4]
  GI50: > 100 µM (inactive)
[5]
  GI50: > 100 µM (inactive)
[6]
  GI50: 96.6 µM (inactive)
[7]
  GI50: > 100 µM (inactive)
[8]
  GI50: > 100 µM (inactive)
[9]
  GI50: > 100 µM (inactive)
[10]
  GI50: > 100 µM (inactive)
[11]
  GI50: > 100 µM (inactive)
[12]
  GI50: > 100 µM (inactive)
[13]
  GI50: > 100 µM (inactive)
[14]
  GI50: > 100 µM (inactive)
[15]
  GI50: > 100 µM (inactive)
[16]
  GI50: > 100 µM (inactive)
[17]
  GI50: > 100 µM (inactive)
[18]
  GI50: > 100 µM (inactive)
[19]
  GI50: > 100 µM (inactive)
[20]
  GI50: > 100 µM (inactive)
[21]
  GI50: > 100 µM (inactive)
[22]
  GI50: > 100 µM (inactive)
[23]
  GI50: > 100 µM (inactive)
[24]
  GI50: > 100 µM (inactive)
[25]
  GI50: > 100 µM (inactive)
[26]
  GI50: > 100 µM (inactive)
[27]
  GI50: > 100 µM
[28]
  GI50: > 100 µM (inactive)
[29]
  GI50: > 100 µM (inactive)
[30]
  GI50: > 100 µM (inactive)
[31]
  GI50: > 100 µM (inactive)
[32]
  GI50: > 100 µM (inactive)
[33]
  GI50: > 100 µM (inactive)
[34]
  GI50: > 100 µM (inactive)
[35]
  GI50: > 100 µM (inactive)
[36]
  GI50: > 100 µM (inactive)
[37]
  GI50: > 100 µM (inactive)
[38]
  GI50: > 100 µM (inactive)
[39]
  GI50: > 100 µM (inactive)
[40]
  GI50: > 100 µM (inactive)
[41]
  GI50: > 100 µM (inactive)
[42]
  GI50: > 100 µM (inactive)
[43]
  GI50: > 100 µM (inactive)
[44]
  GI50: > 100 µM (inactive)
[45]
  GI50: > 100 µM (inactive)
[46]
  GI50: > 100 µM (inactive)
[47]
  GI50: > 100 µM (inactive)
[48]
  GI50: > 100 µM (inactive)
[49]
  GI50: > 100 µM (inactive)
[50]
  GI50: > 100 µM (inactive)
[51]
  GI50: > 100 µM (inactive)
[52]
  GI50: > 100 µM (inactive)
[53]
  GI50: > 100 µM (inactive)

## O=C(c1ccc(Cl)cc1)N(C(=O)N1CCCCC1)c1ccccc1
[1]
  GI50: 20.1 µM (inactive)
[3]
  GI50: > 100 µM (inactive)
[54]
  GI50: > 100 µM (inactive)
[5]
  GI50: 17.6 µM (inactive)
[6]
  GI50: > 100 µM (inactive)
[7]
  GI50: > 100 µM (inactive)
[8]
  GI50: 22.6 µM (inactive)
[55]
  GI50: 33.9 µM (inactive)
[9]
  GI50: 68.1 µM (inactive)
[10]
  GI50: > 100 µM (inactive)
[56]
  GI50: 37.3 µM (inactive)
[12]
  GI50: > 100 µM (inactive)
[13]
  GI50: 65.5 µM (inactive)
[14]
  GI50: 18.9 µM (inactive)
[15]
  GI50: > 100 µM (inactive)
[16]
  GI50: > 100 µM (inactive)
[17]
  GI50: 34.7 µM (inactive)
[18]
  GI50: 56.4 µM (inactive)
[19]
  GI50: > 100 µM (inactive)
[20]
  GI50: > 100 µM (inactive)
[22]
  GI50: > 100 µM (inactive)
[23]
  GI50: 42.5 µM (inactive)
[24]
  GI50: 85.9 µM (inactive)
[25]
  GI50: > 100 µM (inactive)
[27]
  GI50: 79.4 µM
[29]
  GI50: > 100 µM (inactive)
[30]
  GI50: 33.7 µM (inactive)
[31]
  GI50: 23.7 µM (inactive)
[32]
  GI50: > 100 µM (inactive)
[33]
  GI50: > 100 µM (inactive)
[34]
  GI50: 66.5 µM (inactive)
[35]
  GI50: > 100 µM (inactive)
[37]
  GI50: 25.2 µM (inactive)
[38]
  GI50: > 100 µM (inactive)
[39]
  GI50: 41.1 µM (inactive)
[41]
  GI50: 17.7 µM (inactive)
[42]
  GI50: > 100 µM (inactive)
[45]
  GI50: 48.3 µM (inactive)
[46]
  GI50: > 100 µM (inactive)
[47]
  GI50: > 100 µM (inactive)
[48]
  GI50: 31 µM (inactive)
[49]
  GI50: 85.5 µM (inactive)
[50]
  GI50: > 100 µM (inactive)
[51]
  GI50: 34.2 µM (inactive)
[52]
  GI50: > 100 µM (inactive)
[53]
  GI50: > 100 µM (inactive)
